Among the data in patent US12091425B2 (AMGEN INC., priority 2016, dated 2024) are IC50 values, retold here.

For assay [1], the target named is T1, Mcl-1/Bim interaction, recombinant human Mcl-1 (171-327) (Homo sapiens, UniProt Q07820).
T1 construct: made in house
Kind of assay: Cell free Mcl-1: Bim Affinity Assay (Mcl-1 HTRF). Type of assay: binding. A digest of the protocol: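 Biotin-Bim(51-76) peptide, TR-FRET readout, overnight incubation; IC50 from duplicate competition curves, 4-parameter fit.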
In general terms: In TR-FRET formats the signal depends on donor and acceptor labels being close together.

In assay [2] the test system is OPM-2 human multiple myeloma cell line. Kind of assay: Cell Viability Assay (OPM-2 10 FBS). It counts as cell-based. The note with it: OPM-2 cells, CellTiter-Glo. A digest of the protocol: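 OPM-2 myeloma cells, 3000/well in medium with 10% FBS, exposed to serially diluted compounds for 16 h at 37° C./5% CO2. Viability read by CellTiter-Glo luminescence; IC50 from 4-parameter logistic fit.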

Where [3] appears, read: cell free Mcl-1:Bim TR-FRET, recombinant human Mcl-1 (171-327).
The mark [4] stands for this setting: Homo sapiens, OPM-2, 16 h, 16 h.
Where [5] appears, read: TR-FRET, 0.1 nM Mcl-1 (171-327), 0.05 nM biotin-Bim (51-76).
Where [6] appears, read: Homo sapiens, OPM-2, 16 h, 16 h incubation.

T1 sequence (Q07820 171-327): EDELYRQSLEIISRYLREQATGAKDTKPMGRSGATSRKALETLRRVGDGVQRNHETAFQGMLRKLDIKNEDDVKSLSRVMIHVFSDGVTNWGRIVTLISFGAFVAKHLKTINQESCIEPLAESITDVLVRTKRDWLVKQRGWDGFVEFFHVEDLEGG

As a reminder, the IC50 is the concentration needed to halve the response being measured. In the case of `C[C@@H]1[C@@H](C)C/C=C/[C@H](OCCO[C@H]2CCCCO2)[C@@H]2CC[C@H]2CN2C[C@@]3(CCCc4cc(Cl)ccc43)COc3ccc(cc32)C(=O)NS1(=O)=O` (mixture of isomers) [Example 517], the IC50 in assay [1] (setting [3]) came to 1.86 nM; in assay [2] (setting [4]) it was 467 nM.

In the case of `COCCO[C@H]1/C=C/C[C@@H]2CC[C@H]2S(=O)(=O)NC(=O)c2ccc3c(c2)N(C[C@@H]2CC[C@H]21)C[C@@]1(CCCc2cc(Cl)ccc21)CO3` [Example 93, (1S,3′R,6′R,7′S,8′E,11′S,14′R)-6-chloro-7′-(2-methoxyethoxy)-3,4-dihydro-2H,17′H-spiro[naphthalene-1,24′-[22]oxa[15]thia[1,16]diazapentacyclo[16.7.2.0^3,6.0^11,14.0^21,26]heptacosa[8,18,20,26]tetraen]-17′-one 15′,15′-dioxide], the IC50 was found to be 0.494 nM in assay [1] (setting [5]) and 402 nM in assay [2] (setting [4]).

Regarding `C[C@@H]1[C@@H](C)C/C=C/[C@H](OCCC2CCOCC2)[C@@H]2CC[C@H]2CN2C[C@@]3(CCCc4cc(Cl)ccc43)COc3ccc(cc32)C(=O)NS1(=O)=O` [Example 722, (1S,3′R,6′R,7′S,8′E,11′S,12′R)-6-chloro-11′,12′-dimethyl-7′-(2-(tetrahydro-2H-pyran-4-yl)ethoxy)-3,4-dihydro-2H,15′H-spiro [naphthalene-1,22′-[20]oxa[13]thia[1,14]diazatetracyclo [14.7.2.0^3,6.0^19,24]pentacosa[8,16,18,24]tetraen]-15′-one-13′, 13′-dioxide], the half-maximal inhibitory concentration (IC50) in assay [1] (setting [3]) was found to be 11.9 nM; in assay [2] (setting [4]), 473 nM.

`CC[C@@H]1CC/C=C/[C@H](OCc2nnn(C)n2)[C@@H]2CC[C@H]2CN2C[C@@]3(CCCc4cc(Cl)ccc43)COc3ccc(cc32)C(=O)NS1(=O)=O` [Example 987, (1S,3′R,6′R,7′S,8′E,12′R)-6-chloro-12′-ethyl-7′-((2-methyl-2H-tetrazol-5-yl)methoxy)-3,4-dihydro-2H,15′H-spiro[naphthalene-1,22′-[20]oxa[13]thia[1,14]diazatetracyclo[14.7.2.0^3,6.0^19,24]pentacosa [8,16,18,24]tetraen]-15′-one 13′,13′-dioxide]: the IC50 is 0.616 nM in assay [1] (setting [5]) and 392 nM in assay [2] (setting [6]).

Turning to `CC[C@@H]1CC/C=C/[C@H](OCc2nnnn2C)[C@@H]2CC[C@H]2CN2C[C@@]3(CCCc4cc(Cl)ccc43)COc3ccc(cc32)C(=O)NS1(=O)=O` [Example 988, (1S,3′R,6′R,7′S,8′E,12′R)-6-chloro-12′-ethyl-7′-((1-methyl-1H-tetrazol-5-yl)methoxy)-3,4-dihydro-2H,15′H-spiro[naphthalene-1,22′-[20]oxa[13]thia[1,14]diazatetracyclo[14.7.2.0^3,6.0^19,24]pentacosa [8,16,18,24]tetraen]-15′-one 13′,13′-dioxide], the IC50 in assay [1] (setting [5]) was determined as 0.536 nM; in assay [2] (setting [6]), 1000 nM.

On to `O=C1NS(=O)(=O)C/C=C/[C@]2(O)CCO[C@@H](C2)[C@@H]2CC[C@H]2CN2C[C@@]3(CCCc4cc(Cl)ccc43)COc3ccc1cc32` (single isomer, unassigned) [Example 918], for which the 50% inhibitory concentration (IC50) in assay [1] (setting [3]) stood at 2.75 nM; in assay [2] (16 h), 15100 nM.

Consider `C[C@@H]1[C@@H](C)S(=O)(=O)NC(=O)c2ccc3c(c2)N(C[C@@H]2CC[C@H]2[C@@H](OCCN2CCOCC2)/C=C/[C@@H]1C)C[C@@]1(CCCc2cc(Cl)ccc21)CO3` [Example 1049, (1S,3′R,6′R,7′S,8′E,10′S,11′S,12′R)-6-chloro-10′,11′,12′-trimethyl-7′-(2-(4-morpholinyl)ethoxy)-3,4-dihydro-2H,15′H-spiro[naphthalene-1,22′-[20]oxa[13]thia[1,14]diazatetracyclo[14.7.2.0^3,6.0^19,24]pentacosa [8,16,18,24]tetraen]-15′-one 13′,13′-dioxide], for which the concentration for half-maximal inhibition (IC50) in assay [1] (setting [5]) was 0.264 nM; in assay [2] (setting [6]), 126 nM.

As to `COCCO[C@H]1/C=C/C[C@H]2COC[C@@H]2S(=O)(=O)NC(=O)c2ccc3c(c2)N(C[C@@H]2CC[C@H]21)C[C@@]1(CCCc2cc(Cl)ccc21)CO3` (single isomer, unassigned) [Example 1034], the 50% inhibitory concentration (IC50) in assay [1] (setting [5]) was determined as 4.04 nM; in assay [2] (16 h incubation) it was 8050 nM.

On to `O=C1NS(=O)(=O)[C@H]2CCC[C@H](/C=C/[C@H](O)[C@@H]3CC[C@H]3CN3C[C@@]4(CCCc5cc(Cl)ccc54)COc4ccc1cc43)C2` (single isomer, unassigned) [Example 104], for which the IC50 in assay [1] (setting [5]) amounted to 40 nM; in assay [2] (16 h), 13000 nM.

Take `O=C1NS(=O)(=O)[C@@H]2CCOC[C@H]2C/C=C/[C@H](O)[C@@H]2CC[C@H]2CN2C[C@@]3(CCCc4cc(Cl)ccc43)COc3ccc1cc32` (single isomer, unassigned) [Example 318]: the half-inhibitory concentration (IC50) came to 0.273 nM in assay [1] (setting [5]) and 430 nM in assay [2] (setting [4]).

For the compound `C[C@H]1/C=C/[C@H](O)[C@@H]2CC[C@H]2CN2C[C@@]3(CCCc4cc(Cl)ccc43)COc3ccc(cc32)C(=O)NS(=O)(=O)[C@@H]2COC[C@H]21` (single isomer, unassigned) [Example 1058], the IC50 in assay [1] (setting [5]) was 0.249 nM; in assay [2] (16 h incubation), 456 nM.

Regarding `O=C1NS(=O)(=O)[C@@H]2COC[C@H]2C/C=C/[C@H](O)[C@@H]2CC[C@H]2CN2C[C@@]3(CCCc4cc(Cl)ccc43)COc3ccc1cc32` (single isomer, unassigned) [Example 1030], the IC50 worked out at 0.195 nM in assay [1] (setting [5]) and 271 nM in assay [2] (16 h incubation).

Turning to `O=C1NS(=O)(=O)C[C@@H](C2CC2)C/C=C/[C@H](O)[C@@H]2CC[C@H]2CN2C[C@@]3(CCCc4cc(Cl)ccc43)COc3ccc1cc32` (single isomer, unassigned) [Example 683], the IC50 worked out at 2.31 nM in assay [1] (setting [3]) and 2090 nM in assay [2] (16 h).

For the compound `C[C@@H]1CC/C=C/[C@H](OCC(=O)O)[C@@H]2CC[C@H]2CN2C[C@@]3(CCCc4cc(Cl)ccc43)COc3ccc(cc32)C(=O)NS1(=O)=O` [Example 407, (((1S,3′R,6′R,7′S,8′E,12′R)-6-chloro-12′-methyl-13′,13′-dioxido-15′-oxo-3,4-dihydro-2H-spiro[naphthalene-1,22′-[20]oxa[13]thia[1,14]diazatetracyclo[14.7.2.0^3,6.0^19,24]pentacosa [8,16,18,24]tetraen]-7′-yl)oxy)acetic acid], the 50% inhibitory concentration (IC50) is 0.127 nM in assay [1] (setting [5]) and 14400 nM in assay [2] (setting [4]).

For the compound `O=C1NS(=O)(=O)[C@H]2CCCC[C@@H]2C/C=C/[C@H](O)[C@@H]2CC[C@H]2CN2C[C@@]3(CCCc4cc(Cl)ccc43)COc3ccc1cc32` (single isomer, unassigned) [Example 332], the concentration for half-maximal inhibition (IC50) in assay [1] (setting [5]) is 3.89 nM; in assay [2] (setting [4]), 5580 nM.

In the case of `C[C@@H]1CC(=O)NC[C@@H]2CC[C@H]2CN2C[C@@]3(CCCc4cc(Cl)ccc43)COc3ccc(cc32)C(=O)NS(=O)(=O)[C@@H]1C` (single isomer, unassigned) [Example 151], the figures for the IC50 in assay [1] (setting [5]) and in assay [2] (16 h) were 3.56 nM and 9170 nM, respectively.

On to `Cc1nnc(C[C@H]2CC/C=C/[C@H](O)[C@@H]3CC[C@H]3CN3C[C@@]4(CCCc5cc(Cl)ccc54)COc4ccc(cc43)C(=O)NS2(=O)=O)o1` (single isomer, unassigned) [Example 565], for which the IC50 in assay [1] (setting [3]) was 0.61 nM; in assay [2] (16 h), 12600 nM.

For `CO[C@H](C)C[C@H]1CC/C=C/[C@H](O)[C@@H]2CC[C@H]2CN2C[C@@]3(CCCc4cc(Cl)ccc43)COc3ccc(cc32)C(=O)NS1(=O)=O` (single isomer, unassigned) [Example 514], the IC50 is 0.391 nM in assay [1] (setting [3]) and 165 nM in assay [2] (16 h).

As to `COC(=O)CCO[C@H]1/C=C/C[C@H](C)NS(=O)(=O)NC(=O)c2ccc3c(c2)N(C[C@@H]2CC[C@H]21)C[C@@]1(CCCc2cc(Cl)ccc21)CO3` [Example 70, methyl 3-(((1S,3′R,6′R,7′S,8′E,11′S)-6-chloro-11′-methyl-13′,13′-dioxido-15′-oxo-3,4-dihydro-2H-spiro [naphthalene-1,22′-[20]oxa[13]thia[1,12,14]triazatetracyclo[14.7.2.0^3,6.0^19,24]pentacosa[8,16,18,24]tetraen]-7′-yl)oxy)propanoate], the 50% inhibitory concentration (IC50) in assay [1] (setting [5]) was found to be 1.16 nM; in assay [2] (setting [4]), 44.2 nM.

As for `COCCCN1[C@@H](C)C/C=C\[C@H](O)[C@@H]2CC[C@H]2CN2C[C@@]3(CCCc4cc(Cl)ccc43)COc3ccc(cc32)C(=O)NS1(=O)=O` (single isomer, unassigned) [Example 73], the results for the 50% inhibitory concentration (IC50) in assay [1] (setting [5]) and in assay [2] (setting [4]) were 0.728 nM and 1660 nM, respectively.

Regarding `O=C1NS(=O)(=O)CCC/C=C/[C@@H](OCc2nccs2)[C@@H]2CC[C@H]2CN2C[C@@]3(CCCc4cc(Cl)ccc43)COc3ccc1cc32` [Example 216, (1S,3′R,6′R,7′R,8′E)-6-chloro-7′-(1,3-thiazol-2-ylmethoxy)-3,4-dihydro-2H,15′H-spiro[naphthalene-1,22′-[20]oxa[13]thia[1,14]diazatetracyclo[14.7.2.0^3,6.0^19,24]pentacosa [8,16,18,24]tetraen]-15′-one 13′,13′-dioxide], the concentration for half-maximal inhibition (IC50) was found to be 9.77 nM in assay [1] (setting [5]) and 26200 nM in assay [2] (setting [4]).

As for `C[C@@H]1COCCN1CCO[C@H]1/C=C/C[C@H](C)[C@@H](C)S(=O)(=O)NC(=O)c2ccc3c(c2)N(C[C@@H]2CC[C@H]21)C[C@@]1(CCCc2cc(Cl)ccc21)CO3` [Example 523, (1S,3′R,6′R,7′S,8′E,11′S,12′R)-6-chloro-11′,12′-dimethyl-7′-(2-((3R)-3-methyl-4-morpholinyl)ethoxy)-3,4-dihydro-2H,15′H-spiro[naphthalene-1,22′-[20]oxa[13]thia[1,14]diazatetracyclo[14.7.2.0^3,6.0^19,24]pentacosa [8,16,18,24]tetraen]-15′-one 13′,13′-dioxide], the half-inhibitory concentration (IC50) in assay [1] (setting [3]) was found to be 1.82 nM; in assay [2] (setting [4]), 232 nM.
